Results as given in the CheMixHub viscosity set.

Test: xn = mol fraction of the nth substance listed

COc1ccccc1 + CCCCCCCCCCCC
viscosity [mPa·s], 101.3 kPa
Conditions | x1 = 0.1618 | x1 = 0.2902 | x1 = 0.3869 | x1 = 0.4735 | x1 = 0.5603 | x1 = 0.7159 | x1 = 0.843 | x1 = 0.9414
293.15 K | 1.324 | 1.228 | 1.17 | 1.125 | 1.092 | 1.023 | – | –
303.15 K | 1.123 | 1.048 | – | 0.964 | 0.94 | 0.903 | 0.89 | 0.902
313.15 K | 0.967 | 0.908 | 0.872 | 0.843 | 0.821 | 0.791 | 0.781 | 0.79
323.15 K | 0.844 | 0.797 | 0.768 | 0.744 | 0.726 | 0.701 | 0.692 | 0.699

C1CCOC1 + CCCCCCC
viscosity [mPa·s], 101 kPa
Conditions | x1 = 0.1338 | x1 = 0.2578 | x1 = 0.3733 | x1 = 0.4809 | x1 = 0.5815 | x1 = 0.6758 | x1 = 0.7643 | x1 = 0.8475 | x1 = 0.926
293.15 K | 0.403 | 0.4075 | 0.413 | 0.4191 | 0.4285 | 0.4385 | 0.4495 | 0.4619 | 0.4751
298.15 K | 0.3861 | 0.3891 | 0.3935 | 0.3984 | 0.4061 | 0.4146 | 0.4242 | 0.4356 | 0.4465

CC1COC(=O)O1 (stereo not drawn) + c1ccccc1
viscosity [mPa·s]
Conditions | 298.15 K | 303.15 K | 308.15 K
101 kPa, x1 = 0.0191 | 0.6193 | – | 0.5377
101 kPa, x1 = 0.0416 | 0.6341 | – | 0.5545
101 kPa, x1 = 0.0585 | 0.6458 | – | 0.5677
101 kPa, x1 = 0.0771 | 0.6595 | – | 0.5824
101 kPa, x1 = 0.103 | 0.6758 | – | 0.6037
101 kPa, x1 = 0.1982 | 0.7426 | – | 0.6908
101 kPa, x1 = 0.2949 | 0.8478 | – | 0.7937
101 kPa, x1 = 0.3972 | 0.9876 | – | 0.9193
101 kPa, x1 = 0.4938 | 1.145 | – | 1.055
101 kPa, x1 = 0.5987 | 1.346 | – | 1.221
101 kPa, x1 = 0.7002 | 1.571 | – | 1.402
101 kPa, x1 = 0.7907 | 1.799 | – | 1.582
101 kPa, x1 = 0.9024 | 2.119 | – | 1.826
101.3 kPa, x1 = 0.1049 | – | 0.616 | –
101.3 kPa, x1 = 0.2087 | – | 0.7019 | –
101.3 kPa, x1 = 0.3114 | – | 0.798 | –
101.3 kPa, x1 = 0.4131 | – | 0.9074 | –
101.3 kPa, x1 = 0.5136 | – | 1.035 | –
101.3 kPa, x1 = 0.6131 | – | 1.194 | –
101.3 kPa, x1 = 0.7109 | – | 1.379 | –
101.3 kPa, x1 = 0.8083 | – | 1.599 | –
101.3 kPa, x1 = 0.9046 | – | 1.853 | –

CC(C)CC(=O)O + O
viscosity [mPa·s], 101.33 kPa
Conditions | 293.15 K | 313.15 K
x1 = 0.0036 | 1.106 | 0.724
x1 = 0.0073 | 1.161 | 0.742

CC(C)=O + CCOC(C)=O
viscosity [mPa·s], 101 kPa
Conditions | x2 = 0.0999 | x2 = 0.2009 | x2 = 0.3284 | x2 = 0.4015 | x2 = 0.4977 | x2 = 0.5969 | x2 = 0.6915 | x2 = 0.7908 | x2 = 0.9076
293.15 K | 0.3328 | 0.3471 | 0.3615 | 0.3751 | 0.3871 | 0.4003 | 0.4129 | 0.4274 | 0.4419
298.15 K | 0.317 | 0.3305 | 0.3438 | 0.3563 | 0.3674 | 0.3795 | 0.3913 | 0.4035 | 0.4179
303.15 K | 0.3022 | 0.3151 | 0.3274 | 0.3375 | 0.3502 | 0.3603 | 0.3716 | 0.3825 | 0.3961
313.15 K | 0.2757 | 0.2877 | 0.2982 | 0.3065 | 0.3182 | 0.3262 | 0.3364 | 0.3455 | 0.3573

CC1COC(=O)O1 (stereo not drawn) + CCCCCO
298.15 K, 101 kPa
Conditions | viscosity [mPa·s]
x1 = 0.0218 | 3.297
x1 = 0.0861 | 3.235
x1 = 0.1654 | 3.161
x1 = 0.2433 | 3.094
x1 = 0.3101 | 3.029
x1 = 0.374 | 2.973
x1 = 0.4207 | 2.933
x1 = 0.5003 | 2.865
x1 = 0.5691 | 2.808
x1 = 0.6326 | 2.756
x1 = 0.7214 | 2.685
x1 = 0.8072 | 2.618
x1 = 0.8655 | 2.574
x1 = 0.9573 | 2.505

CC(C)=O + CCCO
viscosity [mPa·s]
Conditions | 293.15 K | 298.15 K | 303.15 K | 308.15 K | 313.15 K | 318.15 K | 323.15 K
100 kPa, x1 = 0.0998 | 1.594 | 1.433 | 1.292 | 1.169 | 1.061 | 0.9672 | 0.8879
100 kPa, x1 = 0.1998 | 1.18 | 1.075 | 0.9822 | 0.8994 | 0.825 | 0.7583 | 0.6972
100 kPa, x1 = 0.3 | 0.9113 | 0.8407 | 0.7774 | 0.7203 | 0.6684 | 0.6206 | 0.576
100 kPa, x1 = 0.4001 | 0.735 | 0.6844 | 0.6379 | 0.595 | 0.5538 | 0.5147 | 0.4769
100 kPa, x1 = 0.4999 | 0.6175 | 0.5801 | 0.5456 | 0.513 | 0.4815 | 0.4495 | 0.4195
100 kPa, x1 = 0.6 | 0.5137 | 0.4875 | 0.4629 | 0.4389 | 0.4158 | 0.392 | 0.3661
100 kPa, x1 = 0.6998 | 0.4493 | 0.429 | 0.4094 | 0.3911 | 0.3733 | 0.3543 | 0.3317
100 kPa, x1 = 0.8002 | 0.407 | 0.391 | 0.3751 | 0.3599 | 0.3448 | 0.3286 | 0.3156
100 kPa, x1 = 0.9 | 0.3728 | 0.3531 | 0.34 | – | 0.301 | 0.2875 | 0.279
100 kPa, x1 = 0.9001 | – | – | – | 0.3221 | – | – | –
101 kPa, x1 = 0.1032 | – | 1.433 | – | – | – | – | –
101 kPa, x1 = 0.2056 | – | 0.9891 | – | – | – | – | –
101 kPa, x1 = 0.3073 | – | 0.7819 | – | – | – | – | –
101 kPa, x1 = 0.4083 | – | 0.6403 | – | – | – | – | –
101 kPa, x1 = 0.5086 | – | 0.5381 | – | – | – | – | –
101 kPa, x1 = 0.6082 | – | 0.4652 | – | – | – | – | –
101 kPa, x1 = 0.7072 | – | 0.4139 | – | – | – | – | –
101 kPa, x1 = 0.8055 | – | 0.3742 | – | – | – | – | –
101 kPa, x1 = 0.903 | – | 0.3453 | – | – | – | – | –

C1CCOC1 + C1COCCO1
Conditions | viscosity [mPa·s]
298.15 K, 101 kPa, x2 = 0.5 | 0.6797

Cc1ccc(S(=O)(=O)O)cc1 + C[N+](C)(C)Cc1ccccc1.[Cl-]
Conditions | viscosity [mPa·s]
298 K, 101 kPa, x2 = 0.3 | 12850

O=[N+]([O-])[O-].O=[N+]([O-])[O-].[Mg+2] + O
viscosity [mPa·s], 100 kPa
Conditions | x1 = 0.01 | x1 = 0.03 | x1 = 0.05 | x1 = 0.07
298.15 K | 1.138 | 1.6 | 2.409 | 4.609
323.15 K | 0.707 | 0.9853 | 1.479 | 2.709
